This is an account of results in patent US11739122B2, “Glycopeptide antibiotic compounds, methods for producing the same, and uses thereof” (Academia Sinica, priority 2019, dated 2023).

Experiment [1] deals with T1, Orf2* (Actinoplanes teichomyceticus, UniProt A0A561VD00). Briefly: Deacetylation catalytic specificity. The format is biochemical. As to conditions: substrate of Orf2* (WT).
The subject of a further experiment is E. faecalis ATCC 29302. The experiment can be described thus: MIC, broth microdilution. The experiment is classed as cell-based. As to conditions: Enterococcus faecalis, ATCC29302. A digest of the protocol:
(§1)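 MIC is the test-compound concentration showing no visible growth after plates sit 18-24 h at 37° C, with growth and no-growth control wells checked. Inoculum came from freshly grown broth at 0.5 McFarland, brought to about 1×10^8 CFU mL^−1.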

In experiment [2] the target is T1, Orf2*. The experiment can be described thus: ITC binding affinity. As to conditions: ITC versus Orf2*. As for the experimental part: (§2) Isothermal Titration Calormetry (ITC) Analysis
(§3) A stock solution (50 mM) was prepared by dissolving r6,GlcNAc pseudoaglycone (9) in 50% DMSO. The 1 mM protein solutions of Orf2*, Orf2*T and Dbv27 were prepared in a 50 mM HEPES buffer solution at pH 8.0. The solution (50 mM HEPES, pH8.0 and 10% DMSO) that contained compound 9 (1 mM) or S-adenosylmethionine (SAM) (1 mM) in a 40 μL injection syringe was titrated into the Orf2*, Orf2*T or Dbv27 (0.1 mM) protein solution, which was placed in the sample cell of a 200 μL volume. Each titration consisted of 16 injections of a 2 μL4 s^−1 duration in an interval of 150 seconds. Data analysis was performed by software.

The target of the next experiment is T2, Orf2*T (Actinoplanes teichomyceticus, UniProt A0A561VD00, F193Y/S98A/V121A).
T2 sequence (A0A561VD00 with tags, fused parts or gaps S98A/V121A/F193Y): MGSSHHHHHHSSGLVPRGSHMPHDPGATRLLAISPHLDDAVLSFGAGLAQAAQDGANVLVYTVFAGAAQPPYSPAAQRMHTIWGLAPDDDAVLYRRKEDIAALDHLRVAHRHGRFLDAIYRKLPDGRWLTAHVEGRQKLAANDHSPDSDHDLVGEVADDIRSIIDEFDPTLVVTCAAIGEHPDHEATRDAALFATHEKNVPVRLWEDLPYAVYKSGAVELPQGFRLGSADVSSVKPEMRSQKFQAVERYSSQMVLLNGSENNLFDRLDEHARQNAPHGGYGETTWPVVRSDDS
Briefly: ITC binding affinity. As to conditions: ITC versus Orf2*T. As for the experimental part:
as §2, §3

The test system of the next experiment is VRE ATCC 700802 (vanB). Briefly: MIC, broth microdilution. The format is cell-based, enterococci. As to conditions: Enterococcus. The procedure, abridged: as §1
On the technique in general: Broth dilution looks for growth in wells or tubes with falling amounts of substance.

In a further experiment the test system is VRE ATCC 700425 (vanC). The experiment can be described thus: MIC, broth microdilution. The format is cell-based, enterococci. Particulars: Enterococcus. A digest of the protocol:
as §1

Another experiment relates to VRE ATCC 700221 (vanA). Briefly: MIC, broth microdilution. The experiment is classed as cell-based, enterococci. As to conditions: Enterococcus. A digest of the protocol:
as §1

The subject of another experiment is MRSA ATCC 700787 VRSA. Briefly: MIC, broth microdilution. As to conditions: Staphylococcus aureus. The experiment is classed as cell-based, Staphylococcus aureus. A digest of the protocol: as §1
The test system of the next experiment is MRSA ATCC 43300. Briefly: MIC, broth microdilution. The format is cell-based, Staphylococcus aureus. Particulars: Staphylococcus aureus. The procedure, abridged: as §1
A further experiment relates to MRSA ATCC BAA-44. The experiment can be described thus: MIC, broth microdilution. The format is cell-based, Staphylococcus aureus. Particulars: Staphylococcus aureus. The procedure, abridged:
as §1

The subject of another experiment is MRSA ATCC BAA-39. Briefly: MIC, broth microdilution. The experiment is classed as cell-based, Staphylococcus aureus. As to conditions: Staphylococcus aureus. A digest of the protocol:
as §1

Another experiment relates to MRSA ATCC 700698 hVISA. Briefly: MIC, broth microdilution. The format is cell-based, Staphylococcus aureus. Particulars: Staphylococcus aureus. A digest of the protocol: as §1
Another experiment relates to S. aureus ATCC 29213. The experiment can be described thus: MIC, broth microdilution. Particulars: Staphylococcus aureus, ATCC29213. The experiment is classed as cell-based, Staphylococcus aureus. The procedure, abridged:
as §1

In a further experiment the test system is MRSA ATCC 700789 VRSA. Briefly: MIC, broth microdilution. As to conditions: Staphylococcus aureus. The format is cell-based, Staphylococcus aureus. The procedure, abridged:
as §1

Another experiment has as its system MRSA ATCC BAA-38. The experiment can be described thus: MIC, broth microdilution. The format is cell-based, Staphylococcus aureus. As to conditions: Staphylococcus aureus. A digest of the protocol:
as §1

As a reminder, the MIC is the lowest concentration that inhibits growth of the organism. Usually Kd stands for a measure of binding affinity in units of concentration.

In brackets after ≈: the same amount, converted by molar mass.

T1 sequence (A0A561VD00 entry or part of it): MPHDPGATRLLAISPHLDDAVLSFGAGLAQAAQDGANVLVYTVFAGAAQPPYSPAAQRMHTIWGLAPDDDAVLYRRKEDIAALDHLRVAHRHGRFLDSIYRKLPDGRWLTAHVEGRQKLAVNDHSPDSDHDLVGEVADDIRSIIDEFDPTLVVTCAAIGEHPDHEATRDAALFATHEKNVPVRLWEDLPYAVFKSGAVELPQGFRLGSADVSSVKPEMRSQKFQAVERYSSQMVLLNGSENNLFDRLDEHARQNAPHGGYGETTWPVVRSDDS

With `CC(=O)N[C@H]1[C@H](Oc2c3cc4cc2Oc2ccc(cc2Cl)[C@@H](O)[C@@H]2NC(=O)[C@H](NC(=O)[C@@H]4NC(=O)[C@H]4NC(=O)[C@@H](Cc5ccc(c(Cl)c5)O3)NC(=O)[C@H](N)c3ccc(O)c(c3)Oc3cc(O)cc4c3)c3ccc(O)c(c3)-c3c(O)cc(O)cc3[C@@H](C(=O)O)NC2=O)O[C@H](CO)[C@@H](O)[C@@H]1O` [Compound 5, r4,GlcNAc Tei-pseudoaglycone], on Orf2* [1], the “kcatKm^−1” value was found to be 377300 M⁻¹ s⁻¹.
For `CC(=O)N[C@H]1[C@H](O[C@@H]2c3ccc(c(Cl)c3)Oc3cc4cc(c3O)Oc3ccc(cc3Cl)C[C@H]3NC(=O)[C@H](N)c5ccc(O)c(c5)Oc5cc(O)cc(c5)[C@H](NC3=O)C(=O)N[C@H]4C(=O)N[C@H]3C(=O)N[C@@H]2C(=O)N[C@H](C(=O)O)c2cc(O)cc(O)c2-c2cc3ccc2O)O[C@H](CO)[C@@H](O)[C@@H]1O` [Compound 9, r6,GlcNAc Tei-pseudoaglycone], the MIC against E. faecalis ATCC 29302 was 2 µg/mL (≈ 1.43 µM); with VRE ATCC 700802 (vanB), 4 µg/mL (≈ 2.85 µM); against VRE ATCC 700425 (vanC) it was 4 µg/mL (≈ 2.85 µM); against VRE ATCC 700221 (vanA), more than 128 µg/mL; against MRSA ATCC 700787 VRSA, 0.5 µg/mL (≈ 0.357 µM); against MRSA ATCC 43300, 0.25 µg/mL (≈ 0.178 µM). In addition, the MIC in the experiment with MRSA ATCC BAA-44 is 0.125 µg/mL (≈ 0.0892 µM); with MRSA ATCC BAA-39, 0.125 µg/mL (≈ 0.0892 µM); against MRSA ATCC 700698 hVISA, 1 µg/mL (≈ 0.713 µM); against S. aureus ATCC 29213 it was 0.25 µg/mL (≈ 0.178 µM); with MRSA ATCC 700789 VRSA, 2 µg/mL (≈ 1.43 µM); with MRSA ATCC BAA-38 it was 0.25 µg/mL (≈ 0.178 µM). The figures for the Kd at Orf2* [2] and on Orf2*T were 1420 ± 1100 µM and 125 ± 14 µM, respectively.
